# From paper PMC4380168 (Bioorganic & medicinal chemistry, 2015)
# Like-named read-outs stand apart in the source and are kept apart here.
# Experiments:
# [1] = test system: MDA-MB-231 (breast cancer); assay: Cytotoxicity against MDA-MB-231 breast carcinoma cell line; type: cell-based; conditions: Homo sapiens
# [2] = test system: A549 (lung cancer); assay: Cytotoxicity against A549 lung carcinoma cell line; type: cell-based, human
# [3] = test system: SK-OV-3 (ovarian cancer); assay: Cytotoxicity against SK-OV-3 ovarian carcinoma cell line; type: cell-based, human
# [4] = test system: P.f. K1; conditions: read-out: P.f. K1 IC50; antiprotozoal; ref [5],[4b]; cited from earlier work
# [5] = test system: MRC-5; conditions: read-out: MRC-5 IC50; cytotoxicity against human eukaryotic cell lines; ref [5],[4b]; cited from earlier work
# [6] = test system: polio-infected HeLa cells; conditions: at 10^−7 M; ref [5],[4b]; cited from earlier work
# [7] = Cytotoxicity against MRC-5 cell line; type: cell-based, human; conditions: human, MRC-5 cells (human lung fibroblast, embryonic cell line)
# [8] = ref [7]; cited from earlier work
# [9] = test system: MRC-5 (human lung fibroblast); assay: Cytotoxicity against MRC-5 cell line; type: cell-based; conditions: read-out: MRC-5 EC50 (human lung fibroblast); triplicates
molecule,measurement,setting,value
"CC(=O)c1cccc(N[C@H]2[C@H](N)[C@@](NC(=O)N(C)C)([C@H](C)O)[C@@](C)(O)[C@@]2(O)COC(=O)c2c(C)cccc2O)c1 [Compound 1, pactamycin]",EC50,"[1]; MDA-MB-231, read-out: MDA-MB-231 EC50",124 nM
same,EC50,"[1]; MDA-MB-231, read-out: MDA-MB-231 EC50 (breast cancer)",124 nM
same,EC50,"[2]; Homo sapiens, A549, read-out: A549 EC50",160 nM
same,EC50,"[2]; Homo sapiens, A549, read-out: A549 EC50 (lung cancer)",160 nM
same,EC50,"[3]; Homo sapiens, SK-OV-3, read-out: SK-OV-3 EC50 (ovarian cancer)",129 nM
same,IC50,[4],14.2 nM
same,IC50,[5],95 nM
same,inhibition of polio-infected HeLa cells,[6],complete inhibition
same,EC50,[7],53 nM
"CC[C@]1(NC(=O)N(C)C)[C@@H](N)[C@H](Nc2cccc(C(C)=O)c2)[C@](O)(COC(=O)c2c(C)cccc2O)[C@]1(C)O [Compound 2, 7-Deoxypactamycin]",antiprotozoal activity relative to 1,[8],increased antiprotozoal activity relative to 1
"CC(=O)c1cccc(N[C@H]2[C@H](N)[C@]3(NC(=O)O[C@H]3C)[C@@](C)(O)[C@@]2(O)CO)c1 [Compound 21, De-6-MSA pactamycate]",EC50,"[2]; read-out: A549 EC50 (lung cancer), triplicates",6000 nM
same,EC50,"[3]; read-out: SK-OV-3 EC50 (ovarian cancer), triplicates",3800 nM
same,EC50,[9],2930 nM
jogyamycin [Compound 3],antiprotozoal activity relative to 1,[8],increased antiprotozoal activity relative to 1
